Data: US7314620B2, “Methods for diagnosis and treatment of PH domain signal transduction disorders” (New York University, priority 1995, dated 2008)
“Also recorded” adds a separate entry of the source.

How the values were obtained:
[1] = target: T1, PlecN-PH (Homo sapiens, UniProt P08567); assay: Equilibrium gel filtration (Hummel and Dreyer) of PH domain binding to lipid vesicles; details: PIP2-containing vesicles; overestimate; inhibited by moderately high NaCl; read-out: apparent KD for vesicle binding
T1 construct: residues 1-110 of pleckstrin (PlecN-PH); initiator methionine (N); made in house; host or cells: Escherichia coli (pET11a, T7 system)
T1 sequence (P08567 1-110): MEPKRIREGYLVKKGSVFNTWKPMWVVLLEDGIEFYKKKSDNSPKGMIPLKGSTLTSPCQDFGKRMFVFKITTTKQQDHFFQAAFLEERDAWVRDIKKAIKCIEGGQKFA
Protocol: (§1) A 150×7.5 mm Superdex 75 column, attached to a Dionex HPLC system, was equilibrated with buffer containing PH domain at around 5 μM (depending upon the experiment). A suspension of vesicles that also contained 5 μM PH domain was then injected. In the absence of interaction between the PH domain and the vesicles, the resulting column profile (detected by absorbance at 280 nm) reflects only the lipid peak. However, if there is significant interaction, a trough is observed at a position corresponding to the elution position of the free PH domain, since the lipids have removed free PH domain from the column buffer. When such a trough was observed, in order to determine a KD for the interaction, a series of higher concentrations of PH domain were injected, all with constant lipid concentration. A plot of trough area against [PH] in the injected sample was linear, becoming positive when excess free protein was present in the injected sample (see FIG. 5B). This line was used to determine the point at which no trough was observed. At this point, [PH]free in the injected sample is equal to [PH] in the column buffer. Since [PH]total as well as [lipid]total in the injected sample are known, KD can be determined, as KD=([PH]free×[lipid]free)/[complex]. [complex]=[PH]total−[PH]free, and [lipid]free=[lipid]total−[complex].
(§2) We also utilized the equilibrium gel-filtration approach described by Hummel, J. P., and Dreyer, W. J., Biochim. Biophys. Acta. 63, 530-532, 1962. In this approach, a size exclusion column is equilibrated with a solution of the ligand (5 μM PH domain in this case), and a solution of macromolecule (a vesicle suspension in this case) that also contains 5 μM ligand is then injected. In the absence of interaction between the ligand and macromolecule, a single peak, corresponding to the macromolecule, is observed. […] If an interaction is observed, its KD can be determined as described in Experimental Procedures. […]

[2] = target: T2, PLCδ-PH (Rattus norvegicus, UniProt P10688); assay: as above; details: lipid-containing DMPC vesicles; overestimates of the real KD; read-out: apparent KD for vesicle binding
T2 construct: initiator methionine (N); made in house; host or cells: Escherichia coli (pET11a, T7 system)
T2 sequence (P10688 20-136): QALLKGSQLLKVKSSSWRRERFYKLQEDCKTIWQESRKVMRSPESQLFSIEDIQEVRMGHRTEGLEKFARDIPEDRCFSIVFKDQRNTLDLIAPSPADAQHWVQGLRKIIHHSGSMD
Protocol: as §1, §2

[3] = target: T2, PLCδ-PH; assay: Spin-column competition assay for 3H-I(145)P3 binding to PLCδ-PH
Protocol: A spin-column based competition assay was employed to determine relative affinities of other inositol polyphosphates for PLCδ-PH. […] The sample (40 μl) was then applied to a Biogel P6 gel filtration spin-column. […] Each curve represents the mean of two or more experiments.
The sample was then applied to a pre-spun 1 ml spin-column containing Biogel P6 desalting medium. The spin-column was then centrifuged for 4 minutes at 900 g. Essentially all of the protein was determined to pass through the column under these conditions, and no significant counts were seen to pass through the column in the absence of protein. After spinning, all of the material that passed through the column was added to scintillation fluid for counting. Counts were normalized to those obtained in the absence of competitor, and plotted as fraction of maximal binding. […]
Values for which a precise number is given represent the mean of at least two experiments.

[4] = test system: any PH domain (PLCδ-PH, Dyn-PH, PlecN-PH); assay: Centrifugation-based assay of PH domain binding to lipid vesicles; details: lipid at 5% in DMPC vesicles
Protocol: Attempts to detect PH domain association with lipid vesicles were performed exactly as described by Harlan, J. E. et al., Nature 371, 168-170, 1994. In addition to using the BCA protein assay reagent, for which lipid blanks were rather high compared with the values expected for the protein concentrations employed, we also measured OD278 of the supernatants after addition of SDS in order to detect removal of protein upon pelleting vesicles. […] Initially, we performed a centrifugation-based assay, using the conditions described by Harlan, J. E. et al., Nature 371, 168-170, 1994. […] Similarly, we were unable to detect association of any of the PH domains with the same vesicles by using size-exclusion chromatography to separate protein and lipid. Any complexes between the PH domains and these vesicles therefore form with low affinity and/or have fast dissociation kinetics, such that they dissociate in the separation methods employed.

[5] = target: T3, N-terminal pleckstrin PH domain (Homo sapiens, UniProt P08567); details: PIP2 in detergent; Harlan et al. 1994; cited from earlier work
T3 sequence (P08567 4-101 limits assumed): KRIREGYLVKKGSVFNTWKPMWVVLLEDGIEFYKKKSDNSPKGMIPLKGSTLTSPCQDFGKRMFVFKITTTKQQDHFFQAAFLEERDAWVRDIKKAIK

[6] = target: T4, SH2 domain of Lck (Homo sapiens, UniProt P06239); assay: Equilibrium gel filtration control with SH2 domain; type: binding; details: low salt; 50 mM MOPS pH 6.8, 100 mM NaCl
T4 construct: Control experiments performed with the SH2 domain of Lck; made in house
T4 sequence (P06239 127-224 limits assumed): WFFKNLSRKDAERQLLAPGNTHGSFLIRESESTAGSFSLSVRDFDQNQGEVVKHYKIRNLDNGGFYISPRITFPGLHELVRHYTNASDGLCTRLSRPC

Kd [1]: ~90 µM | Kd [2]: 13 µM | Kd ([3]; PIP2: 5% in DMPC vesicles, assuming 50% available, read-out: KD from competition assay): ~0.4 µM | binding weaker than I(145)P3 ([3]; relative to I(145)P3 binding to PLCδ-PH): two-fold weaker | binding to vesicles [4]: no binding | binding to vesicles [6]: also binds
Substance: Phosphatidylinositol-(4,5)-bisphosphate [PIP2]
competition for I(145)P3 binding by lipid vesicles ([3]; lipid at 5% in DMPC vesicles or pure DMPC, assuming 50% of lipid on the surface): almost as effective as that seen with unlabelled I(145)P3; also recorded: as effectively as can GPIP2 | Kd [5]: ~30 µM
